Test results as given in patent US12016833B2 (ACEBiomed, Inc., priority 2020, dated 2024).
Where two headings read alike, the source gives them in different places.

Tests used:
obesity-induced rats [1] = conditions: HFD rats
Description: (§1) The drugs were administered with a high fat diet for a total of 6 weeks, and administered by oral gavage 3 times a week.

ACC [2] = conditions: rat AML12 liver cell line; drug treatment for 7 hours; FIG. 7
obesity-induced rats [3] = conditions: HFD rats; remark: listed apart in the source
Description: as §1

obesity-induced rats [4] = experiment: Fat accumulated in liver tissue, oil red O staining; assay type: in vivo; conditions: HFD rats; FIG. 5
Description: In addition, in order to examine a quantitative change of fat accumulated in the liver tissues of the rats, the fat was confirmed by staining using an oil red O method, and the results were shown in FIG. 5.

AMPK [5] = conditions: drug treatment for 7 hours; FIG. 7
obesity-induced rats [6] = experiment: Anatomical test of liver cross-sections by H&E staining; assay type: in vivo; conditions: HFD rats; colchicine 100 μg/kg alone or with metformin 100 mg/kg; FIG. 4
Description: For the anatomical test of the cross-sections of the livers of the rats, H&E staining was applied, and the results were shown in FIG. 4.

ACC [7] = conditions: HFD rats; colchicine 100 μg/kg alone or with metformin 100 mg/kg; FIG. 6
Description: as §1

[8] = HFD rats; colchicine (10 μg/kg) alone or colchicine (10 μg/kg)/metformin (50 mg/kg), oral gavage 3 times a week, 6 weeks; FIG. 2
Description: as §1

obesity-induced rats [9] = conditions: HFD rats; remark: listed apart in the source
Description: as §1

AMPK [10] = conditions: HFD rats; colchicine 100 μg/kg alone or with metformin 100 mg/kg; FIG. 6
Description: as §1

[11] = colchicine 10 μg/kg alone, Table 1
[12] = colchicine 50 μg/kg alone, Table 1
[13] = colchicine 100 μg/kg alone, Table 1
[14] = colchicine 100 μg/kg alone, Table 2
[15] = colchicine 200 μg/kg alone, Table 1
[16] = colchicine 10 μg/kg alone, Table 3
[17] = colchicine 50 μg/kg alone, Table 3
[18] = colchicine 100 μg/kg alone, Table 3
[19] = colchicine 100 μg/kg alone, Table 4
[20] = colchicine 200 μg/kg alone, Table 3

With COc1cc2c(c(OC)c1OC)-c1ccc(OC)c(=O)cc1[C@@H](NC(C)=O)CC2 [Colchicine] the Ballooning degeneration (obesity-induced rats [1]; FIG. 3) was “reduced”, the Portal inflammation (obesity-induced rats [1]; FIG. 3) was “reduced” and the macrovesicular steatosis (obesity-induced rats [1]; FIG. 3) was “no effect”. The microvesicular steatosis (obesity-induced rats [1]; FIG. 3) was “reduced”, the Ballooning degeneration (obesity-induced rats [1]; [11]) was 2 and the Fatty necrosis (obesity-induced rats [1]; [11]) was 3. The Fibrosis (obesity-induced rats [1]; [11]) was 3, the Portal inflammation (obesity-induced rats [1]; [11]) was 2 and the Total score (obesity-induced rats [1]; [11]) was 10. It also gave a Ballooning degeneration (obesity-induced rats [1]; [12]) of 2, a Fatty necrosis (obesity-induced rats [1]; [12]) of 2 and a Fibrosis (obesity-induced rats [1]; [12]) of 2. The Portal inflammation (obesity-induced rats [1]; [12]) was 2, the Total score (obesity-induced rats [1]; [12]) was 8 and the Ballooning degeneration (obesity-induced rats [1]; [13]) was 1. The Fatty necrosis (obesity-induced rats [1]; [13]) was 2, the Fibrosis (obesity-induced rats [1]; [13]) was 1 and the Portal inflammation (obesity-induced rats [1]; [13]) was 1. The Total score (obesity-induced rats [1]; [13]) was 5, the Ballooning degeneration (obesity-induced rats [1]; [14]) was 1 and the Fatty necrosis (obesity-induced rats [1]; [14]) was 2. For the same compound, the Fibrosis (obesity-induced rats [1]; [14]) was 1, the Portal inflammation (obesity-induced rats [1]; [14]) was 2 and the Total score (obesity-induced rats [1]; [14]) was 6. The Ballooning degeneration (obesity-induced rats [1]; [15]) was 2, the Fatty necrosis (obesity-induced rats [1]; [15]) was 2 and the Fibrosis (obesity-induced rats [1]; [15]) was 1. The Portal inflammation (obesity-induced rats [1]; [15]) was 2, the Total score (obesity-induced rats [1]; [15]) was 7 and the “activation of ACC” value (ACC [2]) was “increased”. The Hydroxyproline (obesity-induced rats [3]; colchicine 10 μg/kg alone, Table 5) was 345.28 ± 8.14 μg/g of liver, the Hydroxyproline (obesity-induced rats [3]; colchicine 50 μg/kg alone, Table 5) was 326.46 ± 14.55 μg/g of liver and the Hydroxyproline (obesity-induced rats [3]; colchicine 100 μg/kg alone, Table 5) was 308.13 ± 5.04 μg/g of liver. For the same compound, the Hydroxyproline (obesity-induced rats [3]; colchicine 100 μg/kg alone, Table 6) was 316.68 ± 13.36 μg/g of liver, the “fat accumulation in the liver tissues (oil red O)” value (obesity-induced rats [4]) was “reduced” and the “activation of AMPK” value (AMPK [5]) was “increased”. For the same compound, the “steatosis in the liver tissues (H&E staining)” value (obesity-induced rats [6]) was “reduced”, the “activation of ACC in liver tissues” value (ACC [7]) was “partially recovered” and the “change in weights of the whole rats” value [8] was “no significant change”. For the same compound, the ALT (obesity-induced rats [9]; [16]) was 1742.57 ± 102.71 U/L, the AST (obesity-induced rats [9]; [16]) was 1766.90 ± 90.48 U/L and the Total protein (obesity-induced rats [9]; [16]) was 5.07 ± 0.30 g/dL. For the same compound, the ALT (obesity-induced rats [9]; [17]) was 1602.38 ± 61.31 U/L, the AST (obesity-induced rats [9]; [17]) was 1759.49 ± 61.71 U/L and the Total protein (obesity-induced rats [9]; [17]) was 5.21 ± 0.33 g/dL. The ALT (obesity-induced rats [9]; [18]) was 1466.48 ± 49.34 U/L, the AST (obesity-induced rats [9]; [18]) was 1614.70 ± 78.28 U/L and the Total protein (obesity-induced rats [9]; [18]) was 5.24 ± 0.13 g/dL. The ALT (obesity-induced rats [9]; [19]) was 1508.64 ± 102.38 U/L, the AST (obesity-induced rats [9]; [19]) was 1574.22 ± 75.98 U/L and the Total protein (obesity-induced rats [9]; [19]) was 5.13 ± 0.22 g/dL. For the same compound, the ALT (obesity-induced rats [9]; [20]) was 1735.40 ± 86.49 U/L, the AST (obesity-induced rats [9]; [20]) was 1833.70 ± 131.74 U/L and the Total protein (obesity-induced rats [9]; [20]) was 5.09 ± 0.32 g/dL. For the same compound, the “activation of AMPK in liver tissues” value (AMPK [10]) was “partially recovered”.
